Results reported in patent US7824868B2, “Formation of superfibronectin by BBK32 and uses therefor” (priority 2007, dated 2010).

Legend:
[1] = test system: fibronectin matrix of normal human dermal fibroblasts (NHDFs); experiment: Effects on fibronectin matrix assembled by normal human dermal fibroblasts (immunostaining); format: cell-based; conditions: 5 μM, 20 hours
Procedure: Cells were treated for 20 hours and then fixed. […] Treated cells were incubated for 20 hours and probed with Alexa Fluor 488-anti-fibronectin, monoclonal antibody IST-1, and monoclonal antibody IST-9. Images were taken using LSM 510 Confocal Microscope. Bar=10 μm.
4×10^4 adult normal human dermal fibroblasts (NHDFs) (Cambrex, East Rutherford, N.J.) were seeded onto glass coverslips in 24 well Costar tissue culture plates in Fibroblast growth media-2 (FGM-2) (Cambrex). Cells were allowed to grow for 48 hours and then BBK32, Anastellin, or FnbpA peptide D3 was added to a final concentration of 5 μM in FGM-2. Treated cells were incubated for 20 hours at 37° C., 5% CO2. After incubation, cells were washed with Dulbecco's PBS (DPBS) (Gibco, Invitrogen, Carlsbad, Calif.) and fixed with 2% paraformaldehyde for 30 minutes at room temperature. Following washing with DPBS, cells were blocked with 1% BSA for one hour at room temperature. Cells were then probed with Alexa Fluor 488-anti-fibronectin, Texas Red anti-His, monoclonal antibodies IST-1 (plasma and cellular fibronectin) and IST-9 (cellular fibronectin) (abcam, Cambridge, UK) or combinations of antibodies at a dilution of 1:3000 for one hour at room temperature. Following extensive washing with DPBS, appropriate fluorescently labeled secondary antibodies (Alexa Fluor 594-goat anti-mouse) (Invitrogen, Carlsbad, Calif.) were added at a dilution of 1:3000 and incubated for one hour at room temperature. After incubation, cells were washed extensively with DPBS and coverslips were mounted using Gel/Mount (biømeda, Foster City, Calif.) onto glass slides and images were taken using a LSM 510 Confocal Microscope (Zeiss).

^1F3 fibronectin module = molecular target: T1, ^1F3 fibronectin module (Homo sapiens, UniProt P02751); experiment: ELISA-type binding assay, immobilized 1F3 module
T1 construct: His-tag (N); made in house
Procedure: Binding to ^1F3 (FIG. 1A), ^1-2F3 (FIG. 1B), and ^3F3 (FIG. 1C) was assessed using ELISA-type assays. F3 modules were immobilized in microtiter wells and blocked with Ovalbumin.
Binding of BBK32 to F3 modules was tested by coating 1 μg of recombinant ^1F3, ^1-2F3, and ^3F3 modules in 50 μl of 50 mM Tris-HCl, 150 mM NaCl, pH 7.5 (TBS) per well in Immulon 4HBX microtiter plates (Dynatech Laboratories, Chantilly, Va.) and incubating overnight at 4° C. The next day, the wells were washed with 200 μl TBS, 0.05% Tween 20, pH 7.4 (TBST) and blocked with 200 μl TBST containing 2% ovalbumin (Sigma, St. Louis, Mo.) for one hour at room temperature. […] Plates were incubated for one hour at room temperature. After washing with TBST, primary antibodies (rabbit IgG anti-BBK32 or rabbit IgG anti-FnbpA) were added to each well at a 0.48 μg/ml. Plates were incubated for one hour at room temperature and then were washed again with TBST.
Following washing, a 1:3000 dilution of HRP-conjugated goat-anti-rabbit antibodies (BioRad, Hercules, Calif.) was added to each well. Plates were incubated for one hour at room temperature and then washed with TBST. […] Absorbance was measured at 450 nm using a Thermo Max microplate reader (Molecular Devices, Sunnyvale, Calif.). Apparent Kds were calculated by assessing maximal half-binding (Y=Bmax·X/(Kd+X)).

[2] = test system: purified plasma fibronectin; experiment: Fibronectin aggregation assay (O.D.600); format: biochemical, human; conditions: for induction of plasma fibronectin aggregation (in words): 1 μM purified plasma fibronectin, absorbance at 600 nm
Procedure: BBK32, FnbpA peptide D3, Anastellin, and purified plasma fibronectin were centrifuged at 14,000 rpm for 15 minutes and then filtered through 0.22 μm PES syringe filters (Nalgene, Rochester, N.Y.). Following filtration, BBK32, FnbpA peptide D3, and Anastellin were titrated into 1 μM purified plasma fibronectin in TBS. After the addition of each aliquot, the fibronectin/protein mixture was carefully mixed five times with a 200 μl pipette and optical density at 600 nm was measured using a BioPhotometer (Eppendorf, New York, N.Y.) after 10 seconds.

[3] = test system: human umbilical vein endothelial cells (HUVECs); experiment: Endothelial cell proliferation assay; format: cell-based; conditions: 72 hours; for effect on proliferation of endothelial cells (in words): cell counts
Procedure: Cells were seeded onto tissue culture plates in full media and allowed to adhere for two hours. […] Cells were then incubated for 72 hours at 37° C., 5% CO2. After 72 hours, wells were washed, trypsinized, and counted (three counts/well, three wells/dose) using a hemacytometer.
1×10^4 human umbilical vein endothelial cells (HUVECs) (Cambrex) were seeded into Costar 24 well tissue culture plates in endothelial growth media-2 (EGM-2) (Cambrex) and allowed to adhere for two hours. After two hours, BBK32, Anastellin, and FnbpA peptide D3 were added in a dose dependent manner (triplicate) to the wells suspended in EGM-2. Cells were allowed to incubate for 72 hours at 37° C., 5% CO2. After 72 hours, wells were washed with PBS and cells were trypsinized with 0.5% trypsin/EDTA (Cambrex). Trypsinized cells were collected in microcentrifuge tubes and trypsin/EDTA was neutralized with EGM-2. Cells were counted from each well (three counts/well, three wells/dose) using a hemacytometer.

plasma fibronectin = experiment: Proteolytic (thermolysin) digestion of fibronectin aggregates; format: biochemical, human; conditions: 20 μM inducer, 1 μM plasma fibronectin, 5 μg/ml thermolysin 2 hours, SDS-PAGE
Procedure: The sequences obtained, SSPVVID (SEQ ID No. 12), AVEENQE (SEQ ID No. 13), and ITETIP (SEQ ID No. 14), were located to the end of ^13F3, middle of ^3F3, and the start of ^1F3, respectively for both BBK32/fibronectin and Anastellin/fibronectin. Pre-stained protein standard (New England Biolabs).
BBK32, Anastellin, and plasma fibronectin were dialyzed into thermolysin digestion buffer (25 mM Tris, 0.5 mM EDTA, pH 8, 50 mM NaCl, and 2.5 mM CaCl2). 20 μM BBK32 or 20 μM Anastellin was added to 1 μM plasma fibronectin. Solutions were mixed and aggregates were allowed to form for one hour at room temperature. After one hour incubation, 5 μg/ml thermolysin (Sigma) was added to the BBK32-sFn, the Anastellin-sFn, and to plasma fibronectin. The solutions were incubated at room temperature with end-over-end mixing for 2 hours. Digestion was stopped after two hours with the addition of EDTA to a final concentration of 5 mM. Samples were then run on 4-20% gradient SDS-PAGE gels under non-reducing conditions. […] Excess stain was removed with 40% methanol and bands that were present in BBK32-sFn and Anastellin-sFn, but not in plasma fibronectin lanes, were excised and analyzed by N-terminal sequencing using Edman degradation (Protein Sequencing Division, Tufts University Core Facility, Boston, Mass.).

[4] = test system: fibronectin matrix assembly; conditions: cited from earlier work
[5] = test system: leukocyte (mononuclear cell) migration across endothelial cell layer; experiment: Transendothelial migration assay (Transwell); format: cell-based; conditions: IL-4 treated endothelial layer, IL-8 chemoattractant, four hours
Procedure: To determine if sFn decrease the migration of leukocytes to the infection site, transendothelial migration assays were assessed. In these assays endothelial cells were grown to confluence in Transwell® inserts and were encouraged to form tight junctions using interleukin 4 (IL-4). SFn formation was then induced to form on the surface of the endothelial cell layer using BBK32 (21-354), (21-205) and (153-175). A chemoattractant (IL-8) was added to the bottom chamber of the Transwell setup. Mononuclear cells were added to the upper chamber and permitted to migrate for four hours. Following incubation, cells in the bottom chamber were counted.

endothelial cells = experiment: Annexin V apoptosis assay on endothelial cells; format: cell-based; conditions: not shown
[6] = test system: fibronectin 56 kDa and 45 kDa gelatin binding fragments; experiment: Far Western blot of thermolysin digest of fibronectin; conditions: 56 kDa fragment vs 45 kDa gelatin binding fragment
Text: BBK32 binds to the ^1F1-^5F1 N-terminal segment of fibronectin by the tandem beta-zipper mechanism (6-7).

[7] = Stability of recombinant protein; format: physicochemical

Chain of purified plasma fibronectin (P02751 32-1265 limits assumed): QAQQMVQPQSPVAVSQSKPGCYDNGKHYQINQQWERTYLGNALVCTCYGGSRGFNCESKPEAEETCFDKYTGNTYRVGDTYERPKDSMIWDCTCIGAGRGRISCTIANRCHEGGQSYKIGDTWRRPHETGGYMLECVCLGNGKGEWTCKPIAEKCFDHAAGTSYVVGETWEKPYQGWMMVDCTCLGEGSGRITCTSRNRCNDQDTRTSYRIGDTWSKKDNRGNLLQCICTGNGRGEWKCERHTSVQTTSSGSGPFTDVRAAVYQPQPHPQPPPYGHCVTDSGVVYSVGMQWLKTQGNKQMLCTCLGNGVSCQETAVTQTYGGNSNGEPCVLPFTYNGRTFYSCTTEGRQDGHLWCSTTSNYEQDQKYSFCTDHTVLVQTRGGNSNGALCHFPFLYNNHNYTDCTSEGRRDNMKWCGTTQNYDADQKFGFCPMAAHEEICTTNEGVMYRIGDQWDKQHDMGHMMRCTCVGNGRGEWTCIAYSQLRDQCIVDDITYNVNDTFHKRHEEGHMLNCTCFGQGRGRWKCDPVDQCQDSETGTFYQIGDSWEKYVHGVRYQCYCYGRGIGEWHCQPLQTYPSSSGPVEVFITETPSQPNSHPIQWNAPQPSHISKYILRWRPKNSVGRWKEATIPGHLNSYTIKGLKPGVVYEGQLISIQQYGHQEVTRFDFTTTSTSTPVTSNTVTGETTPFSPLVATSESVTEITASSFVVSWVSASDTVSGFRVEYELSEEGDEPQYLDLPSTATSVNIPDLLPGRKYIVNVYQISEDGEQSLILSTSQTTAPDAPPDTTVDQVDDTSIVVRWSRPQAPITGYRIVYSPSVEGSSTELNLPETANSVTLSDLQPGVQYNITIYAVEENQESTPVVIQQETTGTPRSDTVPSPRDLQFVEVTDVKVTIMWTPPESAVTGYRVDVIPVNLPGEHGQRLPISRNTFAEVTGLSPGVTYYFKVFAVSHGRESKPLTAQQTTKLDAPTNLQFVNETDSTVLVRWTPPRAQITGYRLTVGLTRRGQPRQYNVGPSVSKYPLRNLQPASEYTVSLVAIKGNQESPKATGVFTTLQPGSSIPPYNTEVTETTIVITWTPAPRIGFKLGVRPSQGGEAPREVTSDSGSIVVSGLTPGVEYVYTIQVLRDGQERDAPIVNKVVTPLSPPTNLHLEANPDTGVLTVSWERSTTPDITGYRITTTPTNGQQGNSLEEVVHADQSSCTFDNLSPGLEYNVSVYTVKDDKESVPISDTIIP
Chain of plasma fibronectin (P02751 32-1265 limits assumed): as above
T1 sequence (P02751 608-700): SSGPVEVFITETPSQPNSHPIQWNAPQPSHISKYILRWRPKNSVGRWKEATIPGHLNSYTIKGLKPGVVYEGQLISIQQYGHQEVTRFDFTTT

Molecule | co-localization with fibronectin in the extracellular matrix [1] | immunostaining with monoclonal antibody IST 9 (EDA epitope of cellular fibronectin) [1] | binding to the ^1F3 module (in words) (^1F3 fibronectin module) | induction of plasma fibronectin aggregation (in words) [2] | effect on proliferation of endothelial cells (in words) [3] | thermolysin fragment profile of induced fibronectin aggregates (plasma fibronectin) | concentration at which matrix assembly is blocked ([4]; high concentrations, 16 hour incubation causes disappearance of pre-existing matrix) | concentration at which fibronectin matrix assembly is promoted ([4]; low concentrations) | inhibition of transendothelial migration by induced sFn [5] | Annexin V assays (apoptosis) (endothelial cells) | relative binding to fibronectin thermolysin fragments [6] | fibronectin aggregation on addition of detergent Triton X-100 ([2]; Triton X-100 added, not shown) | potency at inhibiting endothelial cell proliferation relative to Anastellin [3] | stability of the recombinant protein [7]
FnbpA peptide D3: S. aureus fibronectin-binding peptide D3 of MSCRAMM FnbpA, synthesized and purified by HPLC; used as control (GFNKHTEIIEEDTNKDKPSYQFGGHNSVDFEEDTLPK) | co-localize with fibronectin | no different from the staining observed for the no treatment control | did not to bind the ^1F3 module | not the D3 protein induced fibronectin aggregation | only marginally affected the proliferation of cells |  |  |  |  |  |  |  |  | 
Anastellin: Recombinant form of the C-terminal two-thirds of fibronectin ^1F3 with C-terminal His-tag; known inducer of superfibronectin | co-localize with fibronectin | markedly reduced immunostaining with IST 9 |  | induced fibronectin aggregation | concentration dependent manner | very similar fragment profiles | above 20 μM | less than 5 μM |  |  |  |  |  | 
IDLTIDSDLRPKSSLQGIAGSNS (recombinant peptide from residues 153-175 of BBK32) [BBK32(153-175), BBK32 peptide, residues 153-175, containing the motifs similar to anastellin] |  | indicates conformational changes in fibronectin in matrices produced by fibroblasts |  | induce aggregation of plasma fibronectin in a concentration dependent manner | inhibits human umbilical vein endothelial cell proliferation in a concentration dependent manner |  |  |  | as effective at inhibiting transendothelial migration as the full length BBK32 protein |  |  |  |  | 
BBK32(21-205): Recombinant fibronectin-binding segment, residues 21-205, of Borrelia burgdorferi lipoprotein BBK32 (SEQ ID NO: 6) (protein, recombinant peptide from residues 21-205 of BBK32) DLFIRYEMKEESPGLFDKGNSILETSEESIKKPIKKPMNKKGKGKIARKKGKSKVSRKEPYIHSLKRDSANKSNFLQKNVILEEESLKTELLKEQSETRKEKIQKQQDEYKGMTQGSLNSLSGESGELEEPIESNEIDLTIDSDLRPKSSLQGIAGSNSISYTDEIEEEDYDQYYLDEYDEEDEEEIRL | co-localize with fibronectin | reduction of immunostaining with IST 9 |  | induced fibronectin aggregation | inhibited the proliferation of endothelial cells in a concentration dependent manner | very similar fragment profiles |  |  |  | negative | binds more strongly to the 56 kDa fragment than to the 45 kDa gelatin binding fragment | inhibited fibronectin aggregation | reproducibly more potent at inhibiting endothelial cell proliferation than Anastellin | 
BBK32(21-354): Recombinant intact BBK32 protein, residues 21-354, including the C-terminal globular domain (SEQ ID NO: 5) (protein, recombinant peptide from residues 21-354 of BBK32) DLFIRYEMKEESPGLFDKGNSILETSEESIKKPIKKPMNKKGKGKIARKKGKSKVSRKEPYIHSLKRDSANKSNFLQKNVILEEESLKTELLKEQSETRKEKIQKQQDEYKGMTQGSLNSLSGESGELEEPIESNEIDLTIDSDLRPKSSLQGIAGSNSISYTDEIEEEDYDQYYLDEYDEEDEEEIRLSNRYQSYLEGVKYNVDSAIQTITKIYNTYTLFSTKLTQMYSTRLDNFAKAKAKEEAAKFTKEDLEKNFKTLLNYIQVSVKTAANFVYINDTHAKRKLENIEAEIKTLIAKKIEQSNLYEAYKAIVTSILLMRDSLKEVQGIIDKNGVWY |  |  |  | induced aggregation of fibronectin at lower concentrations than BBK32(21-205) |  |  |  |  |  |  |  |  |  | unstable and susceptible to degradation
